From BindingDB's records for doi:10.1021/jm00112a034 (Abbott Laboratories, 1991)
pEC50: −log10 of the molar value.

Target: dopamine D1 receptor (Cyprinus carpio)
Test: Concentration required to inhibit 50% dopamine receptor D1 activity using cell free homogenate of carp retina

| pEC50 | SMILES |
| --- | --- |
| 9.00 | NC[C@@H]1OC(c2ccc(Br)cc2)Cc2c1ccc(O)c2O (stereo partly specified) |
| 8.28 | NC[C@@H]1OC(CCc2ccccc2)Cc2c1ccc(O)c2O (stereo partly specified) |
| 7.62 | NC[C@@H]1OC(COc2ccccc2)Cc2c1ccc(O)c2O (stereo partly specified) |
| 5.76 | OCCCNC[C@@H]1OC(C2CCCCC2)Cc2c1ccc(O)c2O (stereo partly specified) |
| 8.20 | CCCCC1Cc2c(ccc(O)c2O)[C@H](CN)O1 (stereo partly specified) |
| 6.91 | Oc1ccc2c(c1O)CC(C1CCCCC1)O[C@H]2CNC1CC1 (stereo partly specified) |
| 8.19 | COc1cccc(C2Cc3c(ccc(O)c3O)[C@H](CN)O2)c1 (stereo partly specified) |
| 7.89 | C#CCNC[C@@H]1OC(C2CCCCC2)Cc2c1ccc(O)c2O (stereo partly specified) |
| 7.16 | NC[C@@H]1OC2(CCCCC2)Cc2c1ccc(O)c2O |
| 7.85 | CCCCCCC1Cc2c(ccc(O)c2O)[C@H](CN)O1 (stereo partly specified) |
| 8.17 | NC[C@@H]1OC(CC2CCCC2)Cc2c1ccc(O)c2O (stereo partly specified) |
| 7.47 | NC[C@@H]1OC(Cc2ccccc2)Cc2c1ccc(O)c2O (stereo partly specified) |
| 8.70 | NC[C@@H]1OC(c2ccc(I)cc2)Cc2c1ccc(O)c2O (stereo partly specified) |
| 7.05 | NC[C@@H]1OC(COCc2ccccc2)Cc2c1ccc(O)c2O (stereo partly specified) |
| 6.85 | CC[C@@H]1Cc2c(ccc(O)c2O)[C@H](CN)O1 |
| 6.63 | CC[C@H]1Cc2c(ccc(O)c2O)[C@H](CN)O1 |
